Assay results: paper PMC9090415, “Discovery of small molecule inhibitors of Plasmodium falciparum apicoplast DNA polymerase” (Journal of Enzyme Inhibition and Medicinal Chemistry, 2022)

Biological target: P. falciparum apicoplast DNA polymerase (Pf-apPOL) (Plasmodium falciparum, UniProt Q8ILY1)
Test: Fluorescence-based high-throughput DNA polymerase assay (molecular beacon), primary screen and dose-response
Type: biochemical
Protocol: The HT assay employs a molecular beacon, a stem-loop DNA template with a Cy3 dye and the Black Hole Quencher on the 3′ and 5′ ends of the DNA, respectively. Pf-apPOL concentration is based on a calculated absorptivity of ε280 = 56750 M^−1 cm^−1. Reactions were carried out at 25 °C, using Corning 3575 […] (well-volume, 20 µL). Assays testing for compound inhibition composed of reaction buffer (pH 7.9 in 50 mM potassium acetate, 20 mM Tris-acetate and 10 mM magnesium acetate), Pf-apPOL (20 nM), DNA substrate (20 nM), dNTPs (6 µM), and compound (10 µM in DMSO). The DNA and nucleotide substrates (dNTPs) were at concentrations of 20 nM and 6 µM, respectively, in the assay. Pf-apPOL was incubated in the reaction buffer with dNTPs and the compound of interest (10 µM, in the assay) at 25 °C for 10 min. The DNA substrate was then added and the reaction was allowed to proceed for 90 min at 25 °C.
Each assay plate contained 16 negative controls (no Pf-apPOL, DMSO present) and 16 positive controls (Pf-apPOL present, no DMSO). The fluorescence of each well was determined using a BioTek Synergy Neo fluorescence plate reader using excitation and emission wavelengths of 555 and 570 nm, respectively.
In the above, Min is the average of fluorescence emission of the negative controls (substrate only), Max the average fluorescence emission from the positive controls (enzyme + substrate), and Test the emission from the assays in the presence of compounds (enzyme + compound + substrates). […] […] The IC50 of each compound was determined using Equation (2): (2) IC50= Vmax/(1+ (I/IC50)^n)
In the above, n measures cooperativity, with n > 1 indicating synergistic binding of more than a single molecule of the compound.
To identify apPOL inhibitors we utilised our previously developed high-throughput DNA polymerase assay. The HT assay is based on a molecular beacon DNA template that forms a stem-loop with a Cy3 dye and the Black Hole Quencher on the 3′ and 5′ ends of the DNA, respectively. DNA polymerase activity extends an annealed primer through the stem region, displacing the fluorophore from the quencher, thereby increasing its fluorescence (Figure 1(A)). The assay accurately recapitulates the kinetic behaviour of apPOL, as measured through more conventional low-throughput gel-based assays. The Z′ factor for the assay described here was 0.9 across all plates (data not shown).
Figure 1. High-throughput screening. (A) The fluorescent-based DNA polymerase assay used to screen the compound libraries. The DNA template strand is a hairpin loop with a primer annealed to the loop. The 3’ end of the primer is 11 bases away from the 6 bp duplex. Strand displacement activity of the DNA polymerase separates the Cy3 dye from the Black hole quencher leading to an increase in fluorescent signal. (B) The high-throughput assay workflow. The DNA polymerase is incubated with […] compound for 10 min prior to addition of the hairpin substrate. The reaction is quenched at 3 different time points and the fluorescent signal is measured and % inhibition is determined using the provided equation.

[1] = primary screen value of the 186 hits; unit not given; 90 min, 10 µM

Chain of P. falciparum apicoplast DNA polymerase (Pf-apPOL) (Q8ILY1 entry or part of it): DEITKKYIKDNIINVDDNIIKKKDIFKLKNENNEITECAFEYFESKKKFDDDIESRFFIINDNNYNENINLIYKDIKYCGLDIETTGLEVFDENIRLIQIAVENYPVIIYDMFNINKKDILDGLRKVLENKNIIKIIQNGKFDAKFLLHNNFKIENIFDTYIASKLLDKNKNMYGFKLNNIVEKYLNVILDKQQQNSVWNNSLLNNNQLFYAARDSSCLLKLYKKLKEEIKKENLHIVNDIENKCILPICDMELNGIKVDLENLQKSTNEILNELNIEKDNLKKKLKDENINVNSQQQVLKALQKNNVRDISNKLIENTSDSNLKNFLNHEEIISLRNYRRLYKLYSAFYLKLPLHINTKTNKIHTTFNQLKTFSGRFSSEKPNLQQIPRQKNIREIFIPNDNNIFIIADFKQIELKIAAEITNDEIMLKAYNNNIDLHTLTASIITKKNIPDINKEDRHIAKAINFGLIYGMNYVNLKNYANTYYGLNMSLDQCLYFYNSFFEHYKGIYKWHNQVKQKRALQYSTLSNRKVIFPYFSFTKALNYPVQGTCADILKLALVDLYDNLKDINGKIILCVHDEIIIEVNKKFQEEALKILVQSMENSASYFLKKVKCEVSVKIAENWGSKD

## O=C(CSc1nc2ccccc2s1)Nc1ncc([N+](=O)[O-])s1 [KU0019667]
DRC-1; 10'; concentration 2.5
  % inhibition Apo pol 10': 10.9138%
DRC-1; 10'; concentration 5
  % inhibition Apo pol 10': 29.1635%
DRC-1; 10'; concentration 10
  % inhibition Apo pol 10': 61.6987%
DRC-1; 10'; concentration 20
  % inhibition Apo pol 10': 83.6526%
DRC-1; 10'; concentration 40
  % inhibition Apo pol 10': 89.1806%
DRC-1; 10'; concentration 80
  % inhibition Apo pol 10': 87.7336%
DRC-1; 90'; concentration 2.5
  % inhibition Apol 90': 0.4185%
DRC-1; 90'; concentration 5
  % inhibition Apol 90': 12.4734%
DRC-1; 90'; concentration 10
  % inhibition Apol 90': 42.9699%
DRC-1; 90'; concentration 20
  % inhibition Apol 90': 72.9689%
DRC-1; 90'; concentration 40
  % inhibition Apol 90': 86.0812%
DRC-1; 90'; concentration 80
  % inhibition Apol 90': 87.9131%
DRC-1; 180'; concentration 2.5
  % inhibition apPOL 180': -6.305%
DRC-1; 180'; concentration 5
  % inhibition apPOL 180': -0.1201%
DRC-1; 180'; concentration 10
  % inhibition apPOL 180': 24.654%
DRC-1; 180'; concentration 20
  % inhibition apPOL 180': 57.312%
DRC-1; 180'; concentration 40
  % inhibition apPOL 180': 80.0815%
DRC-1; 180'; concentration 80
  % inhibition apPOL 180': 84.5661%
DRC-2; 5'; concentration 2.5
  % inhibition Apo pol 5': 0.175%
DRC-2; 5'; concentration 5
  % inhibition Apo pol 5': -22%
DRC-2; 5'; concentration 10
  % inhibition Apo pol 5': -38%
DRC-2; 5'; concentration 20
  % inhibition Apo pol 5': -73%
DRC-2; 5'; concentration 40
  % inhibition Apo pol 5': -86%
DRC-2; 5'; concentration 80
  % inhibition Apo pol 5': -130%
DRC-2; 40'; concentration 2.5
  % inhibition Apol 40': -1.35%
DRC-2; 40'; concentration 5
  % inhibition Apol 40': -10%
DRC-2; 40'; concentration 10
  % inhibition Apol 40': -13%
DRC-2; 40'; concentration 20
  % inhibition Apol 40': -32%
DRC-2; 40'; concentration 40
  % inhibition Apol 40': -29%
DRC-2; 40'; concentration 80
  % inhibition Apol 40': -70%
DRC-2; 90'; concentration 2.5
  % inhibition ApPOL 90': -3%
DRC-2; 90'; concentration 5
  % inhibition ApPOL 90': -10%
DRC-2; 90'; concentration 10
  % inhibition ApPOL 90': -10%
DRC-2; 90'; concentration 20
  % inhibition ApPOL 90': -23%
DRC-2; 90'; concentration 40
  % inhibition ApPOL 90': -14%
DRC-2; 90'; concentration 80
  % inhibition ApPOL 90': -45%
DRC-2; 180'; concentration 2.5
  % inhibition apPOL 180': -13%
DRC-2; 180'; concentration 5
  % inhibition apPOL 180': -17%
DRC-2; 180'; concentration 10
  % inhibition apPOL 180': -18%
DRC-2; 180'; concentration 20
  % inhibition apPOL 180': -23%
DRC-2; 180'; concentration 40
  % inhibition apPOL 180': -7%
DRC-2; 180'; concentration 80
  % inhibition apPOL 180': -23%
conc. 2.5; 180'; DRC-2
  % inhibition apPOL 180': -13%
conc. 5; 40'; DRC-2
  % inhibition Apol 40': -10%
conc. 5; 90'; DRC-2
  % inhibition ApPOL 90': -10%
conc. 10; 40'; DRC-2
  % inhibition Apol 40': -13%
conc. 10; 90'; DRC-2
  % inhibition ApPOL 90': -10%
conc. 20; 90'; DRC-2
  % inhibition ApPOL 90': -23%
conc. 20; 180'; DRC-2
  % inhibition apPOL 180': -23%
conc. 80; 180'; DRC-2
  % inhibition apPOL 180': -23%
Primary screen value by plate and well; 90 min, 10 µM
  DNA Pol: 67
[1]
  DNA Pol: 67

## COc1ccc(-c2occ(C(=O)O)c2C(=O)O)cc1 [KU0021536]
DRC-1; concentration 2.5; 10'
  % inhibition Apo pol 10': 12.66%
DRC-1; concentration 2.5; 90'
  % inhibition Apol 90': 6.208%
DRC-1; concentration 2.5; 180'
  % inhibition apPOL 180': 0.2787%
DRC-1; concentration 5; 10'
  % inhibition Apo pol 10': 21.9361%
DRC-1; concentration 5; 90'
  % inhibition Apol 90': 18.5169%
DRC-1; concentration 5; 180'
  % inhibition apPOL 180': 12.9539%
DRC-1; concentration 10; 10'
  % inhibition Apo pol 10': 43.1098%
DRC-1; concentration 10; 90'
  % inhibition Apol 90': 39.5848%
DRC-1; concentration 10; 180'
  % inhibition apPOL 180': 35.5357%
DRC-1; concentration 20; 10'
  % inhibition Apo pol 10': 66.1228%
DRC-1; concentration 20; 90'
  % inhibition Apol 90': 63.2397%
DRC-1; concentration 20; 180'
  % inhibition apPOL 180': 62.8921%
DRC-1; concentration 40; 10'
  % inhibition Apo pol 10': 86.5866%
DRC-1; concentration 40; 90'
  % inhibition Apol 90': 84.6266%
DRC-1; concentration 40; 180'
  % inhibition apPOL 180': 85.4203%
DRC-1; concentration 80 (unit not given); 10'
  % inhibition Apo pol 10': 93.5468%
DRC-1; concentration 80; 90'
  % inhibition Apol 90': 92.3135%
DRC-1; concentration 80; 180'
  % inhibition apPOL 180': 92.8082%
DRC-2; 5'; concentration 40
  % inhibition Apo pol 5': 50%
DRC-2; 40'; concentration 10
  % inhibition Apol 40': 48%
DRC-2; 90'; concentration 10
  % inhibition ApPOL 90': 50%
DRC-2; 90'; concentration 80
  % inhibition ApPOL 90': 77%
DRC-2; 180'; concentration 10
  % inhibition apPOL 180': 48%
DRC-2; 180'; concentration 40
  % inhibition apPOL 180': 77%
DRC-2; concentration 2.5; 5'
  % inhibition Apo pol 5': 7%
DRC-2; concentration 2.5; 40'
  % inhibition Apol 40': 17%
DRC-2; concentration 2.5; 90'
  % inhibition ApPOL 90': 16%
DRC-2; concentration 2.5; 180'
  % inhibition apPOL 180': 10%
DRC-2; concentration 5; 5'
  % inhibition Apo pol 5': 21%
DRC-2; concentration 5; 40'
  % inhibition Apol 40': 30%
DRC-2; concentration 5; 90'
  % inhibition ApPOL 90': 32%
DRC-2; concentration 5; 180'
  % inhibition apPOL 180': 27%
DRC-2; concentration 10; 5'
  % inhibition Apo pol 5': 34%
DRC-2; concentration 10; 40'
  % inhibition Apol 40': 48%
DRC-2; concentration 10; 90'
  % inhibition ApPOL 90': 50%
DRC-2; concentration 10; 180'
  % inhibition apPOL 180': 48%
DRC-2; concentration 20; 5'
  % inhibition Apo pol 5': 43%
DRC-2; concentration 20; 40'
  % inhibition Apol 40': 62%
DRC-2; concentration 20; 90'
  % inhibition ApPOL 90': 66%
DRC-2; concentration 20; 180'
  % inhibition apPOL 180': 67%
DRC-2; concentration 40; 5'
  % inhibition Apo pol 5': 50%
DRC-2; concentration 40; 40'
  % inhibition Apol 40': 70%
DRC-2; concentration 40; 90'
  % inhibition ApPOL 90': 75%
DRC-2; concentration 40; 180'
  % inhibition apPOL 180': 77%
DRC-2; concentration 80; 5'
  % inhibition Apo pol 5': 51%
DRC-2; concentration 80; 40'
  % inhibition Apol 40': 74%
DRC-2; concentration 80; 90'
  % inhibition ApPOL 90': 77%
DRC-2; concentration 80; 180'
  % inhibition apPOL 180': 80%
[1]
  DNA Pol: 29
Primary screen value; head prints only 'DNA Pol'; 90 min, 10 µM
  DNA Pol: 29
